Earlier results as cited in patent US20180311177A1, “Therapeutic Nanoparticles Comprising A Therapeutic Agent and Methods of Making and Using Same” (Pfizer Inc., priority 2015, published 2018).

How the values were obtained:
[1] = not given; remark: listed apart in the source

Row | Structure (SMILES) | log P | pKa [1]
1 | c1ccc(CNCCNCc2ccccc2)cc1 [N,N′-dibenzylethylenediamine] | 2.89 | –
2 | c1ccc(CCNCc2ccccc2)cc1 [N-(phenylmethyl)benzeneethanamine] | 3.54 | 9.88
3 | CCCCCCCCCCCCN [dodecylamine] | 4.25 | 10.21
